Experimental data: PubChem BioAssay (NCI)
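Five concentrations, 48 hours, 96-well plates. At the TGI there is no net growth.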

Columns and labels:
Experiment in all cases: NCI tumour cell line growth inhibition, 48 h
[1] = test system: TK-10 renal
[2] = test system: NCI-H522 lung
[3] = test system: PC-3 prostate
[4] = test system: HOP-62 NSCLC
[5] = test system: HOP-92 NSCLC
[6] = test system: 786-0 renal
[7] = test system: UACC-62 melanoma
[8] = test system: NCI-H460 lung
[9] = test system: SK-MEL-28 melanoma
[10] = test system: SK-MEL-5 melanoma
[11] = test system: OVCAR-3 ovarian
[12] = test system: M14 melanoma
[13] = test system: EKVX NSCLC
[14] = test system: RPMI-8226 leukemia
[15] = test system: HCC-2998 colon
[16] = test system: K-562 leukemia
[17] = test system: MALME-3M melanoma
[18] = test system: SNB-19 CNS
[19] = test system: UACC-257 melanoma
[20] = test system: COLO 205 colon
[21] = test system: MCF7 breast
[22] = test system: U251 CNS
[23] = test system: A549 NSCLC
[24] = test system: NCI-H226 lung
[25] = test system: SF-539 CNS
[26] = test system: SF-295 CNS
[27] = test system: SNB-75 CNS
[28] = test system: MDA-MB-231 breast
[29] = test system: HCT-116 colon
[30] = test system: NCI-H23 lung
[31] = test system: KM12 colon
[32] = test system: CCRF-CEM leukemia
[33] = test system: OVCAR-4 ovarian
[34] = test system: SW-620 colon
[35] = test system: BT-549 breast
[36] = test system: HCT-15 colon
[37] = test system: UO-31 renal
[38] = test system: SN12C renal
[39] = test system: OVCAR-8 ovarian
[40] = test system: NCI/ADR-RES ovarian
[41] = test system: ACHN renal
[42] = test system: A498 renal
[43] = test system: MDA-MB-435
[44] = test system: HT29 colon
[45] = test system: MDA-N
[46] = test system: CAKI-1 renal
[47] = test system: MOLT-4 leukemia
[48] = test system: HS 578T breast
[49] = test system: DU-145 prostate
[50] = test system: IGROV1 ovarian
[51] = test system: LOX IMVI melanoma
[52] = test system: HL-60(TB) leukemia
[53] = test system: OVCAR-5 ovarian
[54] = test system: SK-OV-3 ovarian
[55] = test system: SF-268 CNS
[56] = test system: T-47D breast
[57] = test system: SK-MEL-2 melanoma
[58] = test system: SR leukemia
[59] = test system: RXF 393 renal

Structure (SMILES): N#Cc1c(Cl)/c(=C/O)c(=O)n2c1nc1ccccc12
- TGI [1]: > 100 µM
- TGI [2]: > 100 µM
- TGI [3]: > 100 µM
- TGI [4]: > 100 µM
- TGI [5]: 68.1 µM
- TGI [6]: > 100 µM
- TGI [7]: > 100 µM
- TGI [8]: > 100 µM
- TGI [9]: > 100 µM
- TGI [10]: > 100 µM
- TGI [11]: 99.5 µM
- TGI [12]: > 100 µM
- TGI [13]: > 100 µM
- TGI [14]: > 100 µM
- TGI [15]: > 100 µM
- TGI [16]: > 100 µM
- TGI [17]: > 100 µM
- TGI [18]: > 100 µM
- TGI [19]: > 100 µM
- TGI [20]: > 100 µM
- TGI [21]: > 100 µM
- TGI [22]: > 100 µM
- TGI [23]: > 100 µM
- TGI [24]: 52 µM
- TGI [25]: > 100 µM
- TGI [26]: > 100 µM
- TGI [27]: > 100 µM
- TGI [28]: > 100 µM
- TGI [29]: > 100 µM
- TGI [30]: > 100 µM
- TGI [31]: > 100 µM
- TGI [32]: > 100 µM
- TGI [33]: > 100 µM
- TGI [34]: > 100 µM
- TGI [35]: > 100 µM
- TGI [36]: > 100 µM
- TGI [37]: > 100 µM
- TGI [38]: > 100 µM
- TGI [39]: > 100 µM
- TGI [40]: > 100 µM
- TGI [41]: > 100 µM
- TGI [42]: 72.1 µM
- TGI [43]: > 100 µM
- TGI [44]: > 100 µM
- TGI [45]: > 100 µM
- TGI [46]: > 100 µM
- TGI [47]: 96.5 µM
- TGI [48]: 94.7 µM
- TGI [49]: > 100 µM
- TGI [50]: > 100 µM
- TGI [51]: > 100 µM
- TGI [52]: 89.6 µM
- TGI [53]: 91.7 µM
- TGI [54]: > 100 µM
- TGI [55]: > 100 µM

Structure (SMILES): COc1ccc2c(c1)N=C1CSC(c3cccc(Br)c3)N1C2 (stereo not given)
- TGI [1]: 41 µM
- TGI [56]: > 100 µM
- TGI [2]: 39.1 µM
- TGI [57]: 36.3 µM
- TGI [3]: 38.4 µM
- TGI [4]: 56.2 µM
- TGI [5]: 53.2 µM
- TGI [6]: 35.1 µM
- TGI [7]: 31.8 µM
- TGI [8]: 23.7 µM
- TGI [9]: > 100 µM
- TGI [10]: 27.6 µM
- TGI [12]: 36.2 µM
- TGI [13]: 33.8 µM
- TGI [14]: 29.7 µM
- TGI [15]: 19.7 µM
- TGI [16]: 67.1 µM
- TGI [17]: 43.1 µM
- TGI [18]: 78.8 µM
- TGI [19]: 24.3 µM
- TGI [20]: 68.7 µM
- TGI [21]: 25.2 µM
- TGI [22]: 44.3 µM
- TGI [23]: 48.1 µM
- TGI [24]: 43.5 µM
- TGI [25]: 41.4 µM
- TGI [26]: 40.8 µM
- TGI [27]: 38.5 µM
- TGI [58]: 23.1 µM
- TGI [28]: 50.6 µM
- TGI [29]: 28.6 µM
- TGI [30]: 45.3 µM
- TGI [31]: 36 µM
- TGI [33]: 40.4 µM
- TGI [34]: > 100 µM
- TGI [35]: 32.4 µM
- TGI [36]: 35.5 µM
- TGI [37]: 30.7 µM
- TGI [38]: 39.7 µM
- TGI [39]: > 100 µM
- TGI [40]: 58 µM
- TGI [41]: 31 µM
- TGI [43]: 34.5 µM
- TGI [44]: 31.9 µM
- TGI [45]: 34.5 µM
- TGI [46]: 59.3 µM
- TGI [47]: 31 µM
- TGI [59]: 29.7 µM
- TGI [48]: 96.7 µM
- TGI [50]: 80.7 µM
- TGI [51]: 50 µM
- TGI [52]: 29.6 µM
- TGI [53]: 56.8 µM
- TGI [54]: 48 µM
- TGI [55]: > 100 µM
